Tests used:
[1] = molecular target: T1, human JAK2 (Homo sapiens, UniProt O60674); experiment: Alphascreen tyrosine kinase enzyme assay, JAK2 kinase domain; format: biochemical; conditions: read-out: JAK2 IC50_nM
T1 construct: The kinase domain of human JAK2 was amplified; GST (N); made in house; host or cells: Sf9 insect cells (baculovirus)
Procedure: (§1) For screening purposes, compounds (in 100% DMSO) were warmed at 37 degrees for at least 20 minutes before use. A […] stock was initially made in assay buffer, where the final concentration of DMSO was 0.3%. The stocks were then diluted in 384 well Optiplates (Packard) where the final concentration of the compound was […].
The kinase domain of human JAK2 was amplified from U937mRNA using the polymerase chain reaction with the following primers: […]
The JAK2 PCR products were cloned into the pDest20 destination vector (Gibco). The JAK2 plasmid was then transformed into competent DH10Bac cells (Gibco), and the recombinant baculovirus was prepared via Sf9 insect cell transfection.
(§2) Baculovirus preparations from each of the constructs were infected into either one or five liters of Sf9 cells (Invitrogen) grown in SF-900 medium (Invitrogen) to a cell density of approximately 1-2×10^6 cells/ml. Cells were infected with virus at a MOI of 0.8-3.0. Cells were harvested and lysed. Tyrosine kinase domains were purified by affinity chromatography on a glutathione-agarose column (Scientifix Pty. Ltd. catalog #: GSH-200).
(§3) Kinase assays were performed in 384 well Optiplates (Packard) using an Alphascreen Protein Tyrosine Kinase PY100 detection kit The compounds were pre-incubated with affinity purified PTK domain in the presence of phosphotyrosine assay buffer (10 mM HEPES, pH 7.5, 100 mM MgCl2, 25 mM NaCl, […] and 0.1% Tween 20) for 20 minutes. The compounds were then incubated with substrate in the presence of ATP. The substrate used was susbtrate-1 with the sequence biotin-EGPWLEEEEEAYGWMDF-NH2 [SEQ. ID. NO. 13] (final concentration […]). For HCK 80 μm ATP was used and incubated for 60 minutes. Alphascreen phosphotyrosine acceptor beads followed by streptavidin donor beads at a concentration of 1/100 in stop buffer were added to each well under subdued light and incubated for 2-3 hours., The Alphascreen plates were read on a Packard Fusion Alpha instrument.

[2] = molecular target: T2, human JAK3 (Homo sapiens, UniProt P52333); experiment: Alphascreen tyrosine kinase enzyme assay, JAK3 kinase domain; format: biochemical; conditions: read-out: JAK3 IC50_nM
T2 construct: The kinase domain of human JAK3 was amplified; GST (N); made in house; host or cells: Sf9 insect cells (baculovirus)
Procedure: as §1
The kinase domain of human JAK3 was amplified from U937mRNA using the polymerase chain reaction with the following primers: […]
The JAK3 PCR products were cloned into the pDest20 destination expression vector (Gibco). The JAK3 plasmid was then transformed into competent DH10Bac cells (Gibco), and the recombinant baculovirus was prepared via Sf9 insect cell transfection.
as §2, §3

[3] = molecular target: T3, BaF3 TELJAK2 cells (BafT_J2) (Homo sapiens, UniProt O60674); experiment: Cellular screening, BaF3 TEL:JAK2 cells, Alamar Blue; format: cell-based; conditions: 40 hr, read-out: BafT_J2 IC50_nM
T3 construct: fused on or other part: TEL (ETV6) N-terminal part, coding nucleotides 1-487, serves as the oligomerising partner; It is fused through a Sal I site to the JAK2 kinase domain and expressed from pTRE2 in BaF3 cells bearing pTET-off; P41212 (Transcription factor ETV6)
Procedure: For screening purposes, compounds were diluted in 96 well plates at a concentration of 20 μM. Plates were warmed at 37° C. for 30 minutes before the assay was performed.
The coding region encompassing nucleotides 1-487 of TEL was amplified by PCR using the oligonucleotides STEL (5′-GGAGGATCCTGATCTCTCTCGCTGTGAGAC-3′) [SEQ ID NO 14] and 3TEL (5′-AGGC GTCGACTTCTTCTTCATGGTTCTG-3′) [SEQ ID NO 15] and U937 mRNA as a template. A […] restriction site was incorporated into the STEL primer, and a Sal I restriction site was incorporated into the 3TEL primer. The regions encompassing the kinase domain of JAK2 (nucleotides 2994-3914; JAK2F 5′-ACGC GTCGACGGTGCCTTTGAAGACCGGGAT-3′ [SEQ ID NO 16]; JAK2R 5′-ATAGTTTAGCGGCCGCTCAGAATGAAGGTCATTT-3′) [SEQ ID NO 17] and JAK3 (nucleotides 2520-3469; JAK3F 5′-GAAGTCGACTATGCCTGCCAAGACCCCACGATCTT-3′) [SEQ ID NO 18] were generated by PCR using Taq DNA polymerase (Gibco/BRL) and […] as a template. A Sal I restriction site was incorporated into the forward primer of JAK2 and JAK3, a Not I site was incorporated into the JAK2 reverse primer and a Xba I site was added to the reverse primer of JAK3.
A TEL/Jak2 fusion was generated by digestion of the TELPCR product with BamH I/Sal I restriction enzymes, digestion of the JAK2 PCR product with Sal I/Not I restriction enzymes, followed by ligation and subcloning of the ligation product into the mammalian expression Vector pTRE 2 (Clontech), which was prepared by digestion with BamH I-Not I restriction enzymes, to give the TEL/Jak2 fusion plasmid pTELJAK2.
The growth factor dependant myelomonocytic cell line BaF3 bearing the pTET-off plasmid (Clontech) was transfected with either pTELJAK2 or pTELJAK3, and the transfected cells were selected for growth-factor independent cell growth. The BaF3 wild-type cells were cultured in DMEM containing 10% FCS, 10% WEHI 3B conditioned medium. The BaF3 TELJAK cells ([…]) were cultured in DMEM 10% Tet-System Approved FBS (without WEHI 3B conditioned medium).
Cell suspensions were prepared by harvesting cells from culture (the cells used in this test were in late log phase growth with high viability.) Cells were diluted in the appropriate growth medium, as described above, to 1.1× final concentration (from 50,000 cell/mL to 200,000 cell/mL, depending on cell line).
Compounds to be tested were added (10 μL, 10× final concentration) to a flat bottomed 96-well plate. The cellular suspension (90 μL per well) was then added, and the plate incubated for 40 hr at 37° C., 5% CO2. Alamar Blue 10 μL per well was added and the plates returned to the incubator for a further 4-6 hours. The plates were then read at 544 nm.

T2 sequence (P52333 822-1111 limits assumed): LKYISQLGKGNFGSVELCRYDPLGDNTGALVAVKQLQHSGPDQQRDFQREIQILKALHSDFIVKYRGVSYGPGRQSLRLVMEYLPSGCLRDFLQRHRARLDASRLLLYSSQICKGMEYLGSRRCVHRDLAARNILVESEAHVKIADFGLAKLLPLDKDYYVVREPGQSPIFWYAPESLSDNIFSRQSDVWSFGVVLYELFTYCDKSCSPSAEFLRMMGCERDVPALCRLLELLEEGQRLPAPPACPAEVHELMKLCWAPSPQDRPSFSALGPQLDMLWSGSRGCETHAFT
T1 sequence (O60674 849-1124 limits assumed): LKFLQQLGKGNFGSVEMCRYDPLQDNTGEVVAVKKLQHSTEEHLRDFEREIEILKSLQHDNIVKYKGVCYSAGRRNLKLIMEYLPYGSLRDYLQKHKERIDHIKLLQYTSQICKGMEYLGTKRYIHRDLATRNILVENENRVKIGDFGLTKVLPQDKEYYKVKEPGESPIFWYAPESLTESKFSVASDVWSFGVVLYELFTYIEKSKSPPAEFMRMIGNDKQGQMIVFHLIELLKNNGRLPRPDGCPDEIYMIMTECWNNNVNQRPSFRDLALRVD
T3 sequence (O60674 whole entry, change not shown, the tested form may be a part): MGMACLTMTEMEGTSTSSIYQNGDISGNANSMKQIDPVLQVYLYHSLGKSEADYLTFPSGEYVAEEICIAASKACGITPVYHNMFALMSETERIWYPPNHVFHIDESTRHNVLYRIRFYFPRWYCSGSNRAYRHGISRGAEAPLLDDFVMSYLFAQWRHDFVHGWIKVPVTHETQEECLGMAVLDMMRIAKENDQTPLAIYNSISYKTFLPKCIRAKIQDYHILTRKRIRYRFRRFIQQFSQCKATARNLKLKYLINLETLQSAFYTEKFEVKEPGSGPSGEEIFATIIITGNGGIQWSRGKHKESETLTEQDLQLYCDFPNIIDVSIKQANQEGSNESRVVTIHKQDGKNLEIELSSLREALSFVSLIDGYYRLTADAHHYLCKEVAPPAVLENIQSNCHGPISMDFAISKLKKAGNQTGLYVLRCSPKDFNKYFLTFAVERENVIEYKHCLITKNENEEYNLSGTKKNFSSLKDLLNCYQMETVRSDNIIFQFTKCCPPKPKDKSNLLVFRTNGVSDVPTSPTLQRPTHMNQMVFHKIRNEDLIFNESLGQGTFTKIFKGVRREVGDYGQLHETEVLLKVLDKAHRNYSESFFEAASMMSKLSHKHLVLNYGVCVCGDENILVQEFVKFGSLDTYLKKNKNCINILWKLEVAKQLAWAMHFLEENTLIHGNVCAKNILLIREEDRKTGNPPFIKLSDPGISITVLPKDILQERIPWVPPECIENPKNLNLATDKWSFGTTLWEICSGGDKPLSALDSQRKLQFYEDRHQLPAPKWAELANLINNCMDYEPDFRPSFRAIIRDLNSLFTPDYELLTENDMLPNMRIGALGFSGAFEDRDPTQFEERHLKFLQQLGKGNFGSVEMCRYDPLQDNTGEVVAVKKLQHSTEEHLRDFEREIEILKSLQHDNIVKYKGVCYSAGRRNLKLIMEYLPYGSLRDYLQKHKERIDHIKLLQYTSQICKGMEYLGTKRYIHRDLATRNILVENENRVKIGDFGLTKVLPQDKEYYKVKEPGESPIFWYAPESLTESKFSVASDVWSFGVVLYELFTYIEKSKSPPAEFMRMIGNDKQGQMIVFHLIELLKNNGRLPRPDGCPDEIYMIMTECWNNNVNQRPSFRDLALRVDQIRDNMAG

COc1ccc(Nc2ncc(C)c(Sc3ccc(N)cc3)n2)cc1OC [Compound 240, 4-(4-aophenylthio)-N-(3,4-dimethoxyphenyl)-5-methylpyrimidin-2-ae] was tested, and the IC50 [1] was greater than 1000 nM, the IC50 [2] was less than 500 nM and the GI50 [3] was less than 5000 nM.
CC#CC(=O)Nc1ccc(Sc2ccnc(Nc3cccc(N4CCOCC4)c3)n2)cc1 [Compound 233, N-(4-(2-(3-morpholinophenylao)pyrimidin-4-ylthio)phenyl)but-2-ynamide] showed an IC50 [1] greater than 1000 nM, an IC50 [2] of less than 100 nM and a GI50 [3] of less than 5000 nM.
Work on C=CC(=O)Nc1ccc(Sc2nc(Nc3ccc(N4CCOCC4)cc3)ncc2C)cc1CC [Compound 260, N-(2-ethyl-4-(5-methyl-2-(4-morpholinophenylao)pyrimidin-4-ylthio)phenyl)acrylamide] yielded an IC50 [1] greater than 1000 nM, an IC50 [2] of less than 100 nM and a GI50 [3] greater than 20000 nM.
In the case of C=CC(=O)Nc1ccc(Sc2nc(Nc3ccc(N4CCOCC4)cc3)ncc2C)cc1C [Compound 259], the IC50 [1] is reported as greater than 1000 nM, the IC50 [2] is reported as less than 100 nM and the GI50 [3] is reported as less than 20000 nM.
C=CC(=O)Nc1ccc(Sc2nc(Nc3ccc(C)c(Br)c3)ncc2C)cc1 [Compound 242, N-(4-(2-(3-bromo-4-methylphenylao)-5-methylpyrimidin-4-ylthio)phenyl)acrylamide] was tested, and the IC50 [1] was greater than 1000 nM, the IC50 [2] was less than 500 nM and the GI50 [3] was greater than 20000 nM.
With C=CC(=O)Nc1ccc(Sc2ccnc(Nc3cccc(O)c3)n2)cc1 [Compound 277, N-(4-(2-(3-hydroxyphenylao)pyrimidin-4-ylthio)phenyl)acrylamide] the IC50 [1] was greater than 1000 nM, the IC50 [2] was less than 100 nM and the GI50 [3] was less than 5000 nM.
With C=CC(=O)Nc1ccc(Sc2nc(Nc3cccc(OC)c3)ncc2C)cc1 [Compound 235, N-(4-(2-(3-methoxyphenylao)-5-methylpyrimidin-4-ylthio)phenyl)acrylamide] the IC50 [1] was greater than 1000 nM, the IC50 [2] was less than 100 nM and the GI50 [3] was less than 20000 nM.
With Cc1cnc(Nc2cccc(N3CCN(C)CC3)c2)nc1Sc1ccc(N)cc1 [Compound 245, 4-(4-aophenylthio)-5-methyl-N-(3-(4-methylpiperazin-1-yl)phenyl)pyrimidin-2-ae] the IC50 [1] was less than 500 nM, the IC50 [2] was less than 500 nM and the GI50 [3] was less than 1000 nM.
C=CC(=O)Nc1ccc(Sc2nc(Nc3ccc(N4CCOCC4)nc3)ncc2C)cc1 [Compound 254, N-(4-(5-methyl-2-(6-morpholinopyridin-3-ylao)pyrimidin-4-ylthio)phenyl)acrylamide] showed an IC50 [1] greater than 1000 nM, an IC50 [2] of less than 100 nM and a GI50 [3] of less than 5000 nM.
C=CC(=O)Nc1ccc(Nc2nccc(SC)n2)cc1 [Compound 13, N-(4-(4-(methylthio)pyrimidin-2-ylao)phenyl)acrylamide] was tested, and the IC50 [1] was greater than 1000 nM, the IC50 [2] was less than 100 nM and the GI50 [3] was less than 20000 nM.
Nc1ccc(Sc2nc(Nc3ccc(N4CCOCC4)cc3)ncc2F)cc1 [Compound 263, 4-(4-aophenylthio)-5-fluoro-N-(4-morpholinophenyl)pyrimidin-2-ae] showed an IC50 [1] greater than 1000 nM, an IC50 [2] of less than 500 nM and a GI50 [3] of less than 5000 nM.
C=CC(=O)Nc1ccc(Sc2nc(Nc3cccc(N4CCOCC4)c3)ncc2I)cc1 [Compound 269, N-(4-(5-iodo-2-(3-morpholinophenylao)pyrimidin-4-ylthio)phenyl)acrylamide] gave an IC50 [1] greater than 1000 nM, an IC50 [2] of less than 100 nM and a GI50 [3] of less than 20000 nM.
Molecule C=CC(=O)Nc1ccc(Sc2nc(Nc3ccc(N4CCN(C)CC4)c(OC)c3)ncc2C)cc1 [Compound 249, N-(4-(2-(3-methoxy-4-(4-methylpiperazin-1-yl)phenylao)-5-methylpyrimidin-4-ylthio)phenyl)acrylamide] has an IC50 [1] greater than 1000 nM, an IC50 [2] of less than 100 nM and a GI50 [3] of less than 5000 nM.
For C=CC(=O)Nc1ccc(Sc2ccnc(Nc3ccc(N4CCN(C)CC4)cc3)n2)cc1 [Compound 238, N-(4-(2-(4-(4-methylpiperazin-1-yl)phenylao)pyrimidin-4-ylthio)phenyl)acrylamide], the IC50 [1] was greater than 1000 nM, the IC50 [2] was less than 100 nM and the GI50 [3] was less than 5000 nM.
CC#CC(=O)Nc1cccc(Nc2nccc(SC)n2)c1 [Compound 8, N-(3-(4-(methylthio)pyrimidin-2-ylao)phenyl)but-2-ynamide] was tested, and the IC50 [1] was greater than 1000 nM, the IC50 [2] was less than 100 nM and the GI50 [3] was less than 5000 nM.
Molecule C=CC(=O)Nc1ccc(Sc2nc(Nc3ccc(N4CCC(CO)CC4)cc3)ncc2Br)cc1 [Compound 253, N-(4-(5-bromo-2-(4-(4-(hydroxymethyl)piperidin-1-yl)phenylao)pyrimidin-4-ylthio)phenyl)acrylamide] has an IC50 [1] greater than 1000 nM, an IC50 [2] of less than 100 nM and a GI50 [3] of less than 20000 nM.
In the case of CC#CC(=O)Nc1cccc(Sc2ccnc(Nc3cccc(N4CCOCC4)c3)n2)c1 [Compound 232, N-(3-(2-(3-morpholinophenylao)pyrimidin-4-ylthio)phenyl)but-2-ynamide], the IC50 [1] is reported as greater than 1000 nM, the IC50 [2] is reported as less than 100 nM and the GI50 [3] is reported as less than 20000 nM.
Work on Cc1cnc(Nc2ccc(N3CCOCC3)cc2)nc1Sc1ccc(N)nc1 [Compound 262, 4-(6-aopyridin-3-ylthio)-5-methyl-N-(4-morpholinophenyl)pyrimidin-2-ae] yielded an IC50 [1] of less than 500 nM, an IC50 [2] of less than 500 nM and a GI50 [3] of less than 20000 nM.
Molecule Cc1cnc(Nc2ccc(N3CCOCC3)cc2)nc1Sc1ccc(N)cc1Cl [Compound 251, 4-(4-ao-2-chlorophenylthio)-5-methyl-N-(4-morpholinophenyl)pyrimidin-2-ae] has an IC50 [1] greater than 1000 nM, an IC50 [2] of less than 100 nM and a GI50 [3] greater than 20000 nM.
Work on Cc1cnc(Nc2ccc(N3CCN(C)CC3)cc2)nc1Sc1ccc(N)cc1 [Compound 244, 4-(4-aophenylthio)-5-methyl-N-(4-(4-methylpiperazin-1-yl)phenyl)pyrimidin-2-ae] yielded an IC50 [1] of less than 500 nM, an IC50 [2] of less than 100 nM and a GI50 [3] of less than 5000 nM.
C=CC(=O)Nc1ccc(Sc2nc(Nc3cccc(N4CCOCC4)c3)ncc2C)cc1 [Compound 237, N-(4-(5-methyl-2-(3-morpholinophenylao)pyrimidin-4-ylthio)phenyl)acrylamide] gave an IC50 [1] greater than 1000 nM, an IC50 [2] of less than 100 nM and a GI50 [3] of less than 5000 nM.

Source: patent publication US8846704B2, “Thiopyrimidine-based compounds and uses thereof” (YM Biosciences Austraila Pty Ltd, priority 2007, dated 2014)
